Reference: patent US8410107B2, “N-pyridin-3-yl or N-pyrazin-2-yl carboxamides” (Hoffmann-La Roche Inc., priority 2010, dated 2013)
Values belong to the molecule of their own block, whether it stands above or below them.

Legend:
[1] = system: ABCA1 protein; experiment: Detection of upregulation of ABCA1 protein in cells (ApoA-I binding, high content image analysis); type: cell-based; details: THP-1 macrophage cells; for % increase of ABCA1 at 3 μM: 24 hrs with compound
How it was run: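 THP-1 cells differentiated with 100 nM PMA for 68 hrs, loaded with 25 μg/ml acetylated LDL for 24 hours, then exposed to compound (0.5% DMSO) for 24 hrs. Surface ABCA1 measured by binding of AlexaFluor 647-labeled human ApoA-I (20 nM, 2 h, 37 °C) with confocal high-content imaging; EC50 from one-site dose-response fit.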

[2] = biological target: T1, human CB1 receptor (Homo sapiens, UniProt P21554); experiment: CB1 receptor affinity ([3H]-CP-55,940 displacement, HEK cell membranes); type: binding; details: displacement of radioligand [3H]-CP-55,940
T1 construct: expressed in transfected cells; host or cells: human embryonic kidney (HEK) cells, Semliki Forest Virus system, membrane preparations
How it was run: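 HEK cell membranes transiently expressing human CB1 (Semliki Forest Virus) incubated with [3H]-CP-55,940 and compound at 10 μM. Bound and free ligand separated by glass-fibre filtration, then scintillation counting. Reported as % inhibition of radioligand binding.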

[3] = biological target: T2, human CB2 receptor (Homo sapiens, UniProt P34972); experiment: CB2 receptor affinity ([3H]-CP-55,940 displacement, HEK cell membranes); type: binding; details: displacement of radioligand [3H]-CP-55,940
T2 construct: expressed in transfected cells; host or cells: human embryonic kidney (HEK) cells, Semliki Forest Virus system, membrane preparations
How it was run: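 Membranes from HEK cells transiently expressing human CB2 via Semliki Forest Virus, incubated with [3H]-CP-55,940 ± compound; bound ligand separated by glass-fiber filtration and counted by scintillation. Reported as % inhibition of radioligand binding at 10 μM compound.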

T1 sequence (P21554 whole entry): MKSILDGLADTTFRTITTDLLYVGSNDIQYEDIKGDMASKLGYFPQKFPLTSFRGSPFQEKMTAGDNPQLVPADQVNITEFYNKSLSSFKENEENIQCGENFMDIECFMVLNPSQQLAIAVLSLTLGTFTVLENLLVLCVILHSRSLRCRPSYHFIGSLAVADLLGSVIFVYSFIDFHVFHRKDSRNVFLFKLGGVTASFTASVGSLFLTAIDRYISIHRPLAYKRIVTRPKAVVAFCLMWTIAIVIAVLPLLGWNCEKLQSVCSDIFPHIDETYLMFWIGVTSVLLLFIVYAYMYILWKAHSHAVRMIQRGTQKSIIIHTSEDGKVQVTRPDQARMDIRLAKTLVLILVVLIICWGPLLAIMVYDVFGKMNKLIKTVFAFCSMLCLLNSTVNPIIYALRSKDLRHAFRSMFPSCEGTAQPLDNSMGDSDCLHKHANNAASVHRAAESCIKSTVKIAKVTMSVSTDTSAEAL
T2 sequence (P34972 whole entry): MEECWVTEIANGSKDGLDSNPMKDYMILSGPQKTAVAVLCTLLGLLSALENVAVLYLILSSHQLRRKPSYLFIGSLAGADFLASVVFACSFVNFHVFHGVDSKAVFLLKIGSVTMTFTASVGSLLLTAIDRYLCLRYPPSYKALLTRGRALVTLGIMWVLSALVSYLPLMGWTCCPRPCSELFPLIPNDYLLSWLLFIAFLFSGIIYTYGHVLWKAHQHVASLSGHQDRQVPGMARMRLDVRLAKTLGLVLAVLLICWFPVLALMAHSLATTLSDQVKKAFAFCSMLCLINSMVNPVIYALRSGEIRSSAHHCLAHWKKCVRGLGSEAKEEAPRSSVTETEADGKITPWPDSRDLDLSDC

SMILES: Cc1cncc(C(=O)Nc2cnc(OC3CCC3)c(-c3ccc(Cl)cc3)c2)c1 [Example 83, N-[5-(4-Chloro-phenyl)-6-cyclobutoxy-pyridin-3-yl]-5-methyl-nicotinamide]
% increase of ABCA1 at 3 μM [1]: >45% @ 3 μM
inhibition at 10 µM [2]: 27%
inhibition at 10 µM [3]: -5%

SMILES: CNC(=O)c1ccc(C(=O)Nc2cnc(OCC(F)(F)F)c(-c3ccc(Cl)cc3)c2)cn1 [Example 84, N5-(5-(4-chlorophenyl)-6-(2,2,2-trifluoroethoxy)pyridin-3-yl)-N2-methylpyridine-2,5-dicarboxamide]
% increase of ABCA1 at 3 μM [1]: >45% @ 3 μM
inhibition at 10 µM [2]: 23%
inhibition at 10 µM [3]: 3%

SMILES: O=C(Nc1cnc(OCC(F)(F)F)c(-c2ccc(Cl)cc2)c1)c1cncc(Br)c1 [Example 85, 5-bromo-N-(5-(4-chlorophenyl)-6-(2,2,2-trifluoroethoxy)pyridin-3-yl)nicotinamide]
% increase of ABCA1 at 3 μM [1]: >45% @ 3 μM
inhibition at 10 µM [2]: 38%
inhibition at 10 µM [3]: 5%

SMILES: COC(C)C(=O)Nc1cnc(OCC(F)(F)F)c(-c2ccc(Cl)cc2)c1 (stereo not drawn) [Example 86, N-(5-(4-chlorophenyl)-6-(2,2,2-trifluoroethoxy)pyridin-3-yl)-2-methoxy-propanamide]
% increase of ABCA1 at 3 μM [1]: >45% @ 3 μM
inhibition at 10 µM [2]: 48%
inhibition at 10 µM [3]: 5%

Further lines, with some results ahead:

inhibition at 10 µM [2]: 19%
inhibition at 10 µM [3]: -15%
SMILES: CNC(=O)c1cncc(C(=O)Nc2cnc(OCC(F)(F)F)c(-c3ccc(Cl)cc3)c2)c1 [Example 87, N3-(5-(4-chlorophenyl)-6-(2,2,2-trifluoroethoxy)pyridin-3-yl)-N5-methylpyridine-3,5-dicarboxamide]
% increase of ABCA1 at 3 μM [1]: >45% @ 3 μM

inhibition at 10 µM [2]: 41%
inhibition at 10 µM [3]: 16%
SMILES: CO[C@H](C)C(=O)Nc1cnc(OCC(F)(F)F)c(-c2ccc(Cl)cc2)c1 [Example 88, (+)-N-(5-(4-chlorophenyl)-6-(2,2,2-trifluoroethoxy)pyridin-3-yl)-2-methoxypropanamide]
% increase of ABCA1 at 3 μM [1]: >45% @ 3 μM

inhibition at 10 µM [2]: 35%
inhibition at 10 µM [3]: 5%
SMILES: CO/N=C(\C)C(=O)Nc1cnc(OCC(F)(F)F)c(-c2ccc(Cl)cc2)c1 [Example 89, (E)-N-(5-(4-chlorophenyl)-6-(2,2,2-trifluoroethoxy)pyridin-3-yl)-2-(methoxyimino)propanamide]
EC50 ([1]; ABCA1 protein increasing efficacy): 3.31 µM
